Measured values published in US20100234593A1, “Imidazo[4,5-B]Pyridine-7-Carboxamides 704” (ASTRAZENECA AB, priority 2007, published 2010).
Where a name gives a salt, the structure may show the parent alone.

Target: T1, recombinant human GSK3β (Homo sapiens, UniProt P49841)
T1 construct: purchased Dundee University, UK
Experiment: GSK3β Scintillation Proximity Assay (ATP competition)
Type: biochemical
Settings: SPA, 1 μM ATP, 1 μM biotinylated peptide substrate; Ki calculated with Km of ATP 20 μM
Experimental: Determination of ATP Competition in Scintillation Proximit), GSK3β Assay.
GSK3β Scintillation Proximity Assay.
The competition experiments were carried out in duplicate with 10 different concentrations of the inhibitors in clear-bottom microtiter plates (Wallac, Finland). A biotinylated peptide substrate, Biotin-Ala-Ala-Glu-Glu-Leu-Asp-Ser-Arg-Ala-Gly-Ser(PO3H2)-Pro-Gln-Leu (AstraZeneca, Lund), was added at a final concentration of 1 μM in an assay buffer containing 1 mU recombinant human GSK3β (Dundee University, UK), 12 mM morpholinepropanesulfonic acid (MOPS), pH 7.0, 0.3 mM EDTA, 0.01% β-mercaptorethanol, 0.004% Brij 35 (a […] detergent), 0.5% glycerol and 0.5 μg BSA/25 μl. The reaction was initiated by the addition of 0.04 μCi [γ-^33P]ATP (Amersham, UK) and unlabelled ATP at a final concentration of 1 μM and assay volume of 25 μl. After incubation for 20 minutes at room temperature, each reaction was terminated by the addition of 25 μl stop solution containing 5 mM EDTA, 50 μM ATP, 0.1% Triton X-100 and 0.25 mg streptavidin coated Scintillation Proximity Assay (SPA) beads (Amersham, UK). After 6 hours the radioactivity was determined in a liquid scintillation counter (1450 MicroBeta Trilux, Wallac). The inhibition curves were analysed by non-linear regression using GraphPad Prism, USA. The Km value of ATP for GSK3β, used to calculate the inhibition constants (Ki) of the various compounds, was 20 μM.

T1 sequence (P49841 whole entry): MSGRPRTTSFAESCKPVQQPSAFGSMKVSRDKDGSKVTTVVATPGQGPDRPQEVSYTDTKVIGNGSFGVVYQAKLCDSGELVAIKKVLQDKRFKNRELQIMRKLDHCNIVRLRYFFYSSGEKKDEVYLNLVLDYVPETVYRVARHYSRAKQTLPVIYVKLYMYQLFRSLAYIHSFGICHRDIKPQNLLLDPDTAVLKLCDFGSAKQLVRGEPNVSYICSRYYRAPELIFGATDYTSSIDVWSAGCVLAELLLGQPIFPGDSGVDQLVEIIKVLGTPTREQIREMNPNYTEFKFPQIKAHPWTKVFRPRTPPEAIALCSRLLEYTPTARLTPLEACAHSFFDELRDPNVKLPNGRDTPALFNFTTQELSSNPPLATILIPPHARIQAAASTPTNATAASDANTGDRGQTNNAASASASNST

Ki	SMILES
0.39 µM	COCCCNC(=O)c1c(Br)cnc2[nH]c(-c3ccc(CN4CCOCC4)cc3)nc12 [Example 13, 6-Bromo-S-(3-methoxypropyl)-2-[4-(morpholin-4-ylmethyl)phenyl]-3H-imidazo[4,5-b]pyridine-7-carboxamide]
1.4 µM	COCCCNC(=O)c1c(Cl)cnc2[nH]c(-c3ccc(CN4CCOCC4)cc3)nc12 [Example 14, 6-Chloro-N-(3-methoxypropyl)-2-[4-(morpholin-4-ylmethyl)phenyl]-3H-imidazo[4,5-b]pyridine-7-carboxamide]
0.779 µM	COCCCNC(=O)c1c(F)cnc2[nH]c(-c3ccc(CN4CCOCC4)cc3)nc12 [Example 21, 6-Fluoro-N-(3-methoxypropyl)-2-[4-(morpholin-4-ylmethyl)phenyl]-3H-imidazo[4,5-b]pyridine-7-carboxamide hydrochloride]
